The text below walks through data of patent publication US20200277268A1, “PENTAFLUOROPHENYL SULFONAMIDE COMPOUNDS, COMPOSITIONS AND USES THEREOF” (DALRIADA THERAPEUTICS INC., priority 2017, published 2020).

The subject of assay [1] is MV4-11. Put plainly: CellTiter-Blue cell viability, MV4-11. The note with it: for activity in AML cells: AML cells (MV4-11 and MOLM13); for IC50: Homo sapiens, MV4-11, AML cell line, 72 hours. The format is cell-based. The procedure: (§1) The anti-cancer efficacy of exemplary compounds of the application were assessed in vitro against different cancer cell lines. Cell viability was examined following treatment at various concentrations of inhibitor (0.097656-50 μM) using a CellTiter-Blue® cell viability assay. 1×10^4 cells/well were plated in 96-well assay plates in culture medium. All cells were grown in DMEM, IMDM and RPMI-1640 supplemented with 10% fetal bovine serum (FBS). In some instances, FBS was removed for periods ranging from 16-24 hours, and re-introduced with test compound addition. After 24 hrs, test compounds and vehicle controls were added to appropriate wells such that the final volume was 100 μl in each well. The cells were cultured for the desired test exposure period (72 hours) at 37° C. and 5% CO2. The assay plates were removed from 3° C. incubator and 20 μl/well of CellTiter-Blue® Reagent was added. The plates were incubated using standard cell culture conditions for 1-4 hours. Afterwards, the plates were shaken for 10 seconds and florescence was recorded at 560/590 nm using a Cytation 3 spectrophotometer. IC50 values were determined using non-linear regression analysis with GraphPad Prism 6.0 (GraphPad Software Inc.).
In general terms: Resazurin is reduced to fluorescent resorufin, in cell work by metabolically active cells.

The subject of assay [2] is MOLM13. In words: CellTiter-Blue cell viability, MOLM13. The format is cell-based. Particulars: Homo sapiens, MOLM-13; AML cell line, 72 hours. The procedure:
as §1

As usually defined, the IC50 is the point on the concentration scale where inhibition reaches its midpoint. A high value points to weaker potency. With `O=S(=O)(c1ccccc1)N(Cc1ccc(F)cc1)C1CC1` [Comparative Example 2, N-cyclopropyl-N-(4-fluorobenzyl)benzenesulfonamide, reference compound], in assay [1], the “activity in AML cells” value is “inactive” and the IC50 was at least 25 µM. Further, the 50% inhibitory concentration (IC50) in assay [2] was at least 25 µM.
Turning to `O=S(=O)(Nc1ccc(F)cc1)c1c(F)c(F)c(F)c(F)c1F` [Comparative Example 5, 2,3,4,5,6-pentafluoro-N-(4-fluorophenyl)benzenesulfonamide, reference compound], the values for the IC50 in assay [1] and in assay [2] were 4.4 µM and 17.6 µM, respectively. For the same compound, in assay [1] (cell viability, Table 1), the “potency relative to parent I-1 analogue” value is “less potent”.
As to `O=S(=O)(NC1(c2ccccc2)CC1)c1c(F)c(F)c(F)c(F)c1F` [Comparative Example 7, 2,3,4,5,6-pentafluoro-N-(1-phenylcyclopropyl)benzenesulfonamide, reference compound], it took 31 µM to reach half-maximal inhibition in assay [1] (IC50).
On to `O=S(=O)(c1c(F)c(F)cc(F)c1F)N(Cc1ccc(F)cc1)C1CC1` [Comparative Example 8, N-cyclopropyl-2,3,5,6-tetrafluoro-N-(4-fluorobenzyl)benzenesulfonamide, reference compound], for which, in assay [1], the “activity in AML cells” value is “inactive”. Moreover, the 50% inhibitory concentration (IC50) was above 12.5 µM in assay [1] and above 25 µM in assay [2].
Consider `O=S(=O)(c1c(F)c(F)c(F)c(F)c1F)N(Cc1ccc(F)cc1)C1CCCC1` [Compound I-5, N-cyclopentyl-2,3,4,5,6-pentafluoro-N-(4-fluorobenzyl)benzenesulfonamide], for which the IC50 came out at 0.7 µM in assay [1] and 2 µM in assay [2].
As for `O=S(=O)(c1c(F)c(F)c(F)c(F)c1F)N(Cc1ccncc1)C1CC1` [Compound I-9, N-cyclopropyl-2,3,4,5,6-pentafluoro-N-(pyridin-4-ylmethyl)benzenesulfonamide], the IC50 in assay [1] was determined as 1.83 µM; in assay [2] it was 1.62 µM.
Regarding `O=S(=O)(c1c(F)c(F)c(F)c(F)c1F)N(C1CC1)C(c1ccc(F)cc1)C(F)(F)F` (stereo not shown) [Compound I-10, N-cyclopropyl-2,3,4,5,6-pentafluoro-N-(2,2,2-trifluoro-1-(4-fluorophenyl)ethyl)benzenesulfonamide], the half-maximal inhibitory concentration (IC50) was found to be 0.974 µM in assay [1] and 9.83 µM in assay [2].
In the case of `CCOC(=O)C1(N(Cc2ccc(F)cn2)S(=O)(=O)c2c(F)c(F)c(F)c(F)c2F)CC1` [Compound I-18, Ethyl 1-((2,3,4,5,6-pentafluoro-N-((5-fluoropyridin-2-yl)methyl)phenyl)sulfonamido)cyclopropane-1-carboxylate], the 50% inhibitory concentration (IC50) in assay [1] was 2.8 µM; in assay [2] it was 6.2 µM.
In the case of `COc1cc(CN(C2CC2)S(=O)(=O)c2c(F)c(F)c(F)c(F)c2F)cc(OC)c1` [Compound I-22, N-cyclopropyl-N-(3,5-dimethoxybenzyl)-2,3,4,5,6-pentafluorobenzenesulfonamide], the half-maximal inhibitory concentration (IC50) stood at 4.7 µM in assay [1] and 4.5 µM in assay [2].
In the case of `CS(=O)(=O)c1ccc(CN(C2CC2)S(=O)(=O)c2c(F)c(F)c(F)c(F)c2F)cc1` [Compound I-24, N-cyclopropyl-2,3,4,5,6-pentafluoro-N-(4(methylsulfonyl)benzyl)benzenesulfonamide], the IC50 in assay [1] is 1.15 µM; in assay [2], 1.35 µM.
Turning to `COC(=O)c1ccc(CN(C2CC2)S(=O)(=O)c2c(F)c(F)c(F)c(F)c2F)cc1` [Compound I-27, Methyl 4-(((N-cyclopropyl-2,3,4,5,6-pentafluorophenyl)sulfonamido)methyl)benzoate], the IC50 is 2 µM in assay [1] and 0.9 µM in assay [2].
Take `O=S(=O)(c1c(F)c(F)c(F)c(F)c1F)N(Cc1ccccn1)C1CC1` [Compound I-32, N-cyclopropyl-2,3,4,5,6-pentafluoro-N-(pyridin-2-ylmethyl)benzenesulfonamide]: the figures for the half-inhibitory concentration (IC50) in assay [1] and in assay [2] were 1.5 µM and 1.3 µM, respectively.
In the case of `O=C(OCc1ccccc1)c1ccc(CN(C2CC2)S(=O)(=O)c2c(F)c(F)c(F)c(F)c2F)cc1` [Compound I-41, Benzyl 4-(((N-cyclopropyl-2,3,4,5,6-pentafluorophenyl)sulfonamido)methyl)benzoate], the half-maximal inhibitory concentration (IC50) in assay [1] came to 1 µM; in assay [2] it was 3.2 µM.
